Reference: patent publication US20210038607A1, “OXADIAZOLYLTHIOPHENE DERIVATIVES USEFUL AS HISTONE DEACETYLASE INHIBITORS” (Karus Therapeutics Limited, priority 2018, published 2021)

Columns and labels:
Human HDAC5 = molecular target: T1, Human HDAC5 (Homo sapiens, UniProt Q9UQL6); assay: HDAC5 biochemical assay, class IIa-specific substrate; settings: read-out: HDAC Isoform IC50 (nM) 5
T1 construct: full length with C-terminal His tag, MW=51.1 kDa; His (C); host or cells: baculovirus expression system
T1 sequence (Q9UQL6 656-1122 limits assumed): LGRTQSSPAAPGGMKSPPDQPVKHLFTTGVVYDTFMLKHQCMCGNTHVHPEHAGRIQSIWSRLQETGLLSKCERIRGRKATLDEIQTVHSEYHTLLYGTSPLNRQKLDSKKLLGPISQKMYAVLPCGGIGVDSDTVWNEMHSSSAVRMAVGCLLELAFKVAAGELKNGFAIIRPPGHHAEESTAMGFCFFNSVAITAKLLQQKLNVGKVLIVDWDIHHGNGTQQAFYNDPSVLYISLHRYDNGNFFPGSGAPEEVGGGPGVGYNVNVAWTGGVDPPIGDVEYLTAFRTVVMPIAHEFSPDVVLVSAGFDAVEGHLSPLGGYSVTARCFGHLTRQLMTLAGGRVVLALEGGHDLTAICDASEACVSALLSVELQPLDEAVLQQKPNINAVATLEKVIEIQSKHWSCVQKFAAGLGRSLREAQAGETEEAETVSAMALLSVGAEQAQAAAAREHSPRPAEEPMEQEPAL
Summary of the method: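 Two-step fluorogenic read-out: deacetylated trifluoroacetyl-lysine AMC substrate (50 μM) digested by developer, measured at Ex/Em 360/460. Deacetylation step: 0.05 ng/ul His-tagged full-length baculoviral enzyme with compound, 30 min, room temperature, pH 8.0 Tris with 1 mg/mL BSA and 1% DMSO.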

Human HDAC10 = molecular target: T2, Human HDAC10 (Homo sapiens, UniProt Q969S8); assay: HDAC10 biochemical assay, AMC-labeled peptide substrate; settings: read-out: HDAC Isoform IC50 (nM) 10
T2 construct: Human HDAC10 (a.a. 1-481); GST (N); His (C); host or cells: baculovirus expression system
T2 sequence (Q969S8 1-481): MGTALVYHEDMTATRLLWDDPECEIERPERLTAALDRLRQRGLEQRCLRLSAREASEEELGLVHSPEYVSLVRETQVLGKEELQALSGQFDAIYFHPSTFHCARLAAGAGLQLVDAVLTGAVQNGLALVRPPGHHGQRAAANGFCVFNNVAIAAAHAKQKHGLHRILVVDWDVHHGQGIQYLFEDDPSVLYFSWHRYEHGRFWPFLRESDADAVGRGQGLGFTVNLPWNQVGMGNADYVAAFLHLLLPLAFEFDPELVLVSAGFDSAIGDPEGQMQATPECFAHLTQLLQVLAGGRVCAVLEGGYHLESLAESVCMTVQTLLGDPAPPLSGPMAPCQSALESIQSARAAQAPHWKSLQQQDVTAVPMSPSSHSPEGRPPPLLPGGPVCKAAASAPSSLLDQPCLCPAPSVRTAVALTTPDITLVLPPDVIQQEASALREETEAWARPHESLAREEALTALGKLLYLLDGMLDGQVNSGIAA
Description: (§1) Activity against all zinc-dependent HDACs 1 to 11 was assessed by using an acetylated AMC-labeled peptide substrate. The substrate RHKK(Ac)AMC was used for HDAC1, HDAC2, HDAC3, HDAC6 and HDAC10; the substrate used for HDAC8 was RHK(Ac)K(Ac)AMC. Activity against the class IIa HDACs (HDAC4, 5, 7, 9) and HDAC11 was determined using a class IIa-specific substrate, BOC-Lys(trifluoroacetyl)-AMC (“Trifluoroacetyl Lysine”; see Lahm et al, 2007, PNAS, 104, 17335-17340). All assays were based on the AMC-labeled substrate and developer combination.
(§2) The protocol involved a two-step reaction: first, the substrate with the acetylated lysine side chain is incubated with a sample containing HDAC activity, to produce the deacetylated products, which are then digested in the second step by the addition of developer to produce the fluorescent signal proportional to the amount of deacetylated substrates.
Human HDAC10 (a.a. 1-481), GenBank Accession No. NM_032019 with N-terminal GST tag and C-terminal His tag, MW=78 kDa, expressed in baculovirus expression system.
(§3) Assay Buffer: 50 mM Tris-HCl, pH8.0, 137 mM NaCl, 2.7 mM KCl, 1 mM MgC2. Before use, 1 mg/mL BSA and DMSO are added.
HDAC10: 12 ng/ul HDAC10 and 50 μM HDAC substrate are in the reaction buffer with 1% DMSO final. Incubate for 2 hours at 30° C.
(§4) Stage 1: Deacetylation of substrate by incubation of HDAC enzymes with compounds
(§5) Stage 2: Development by addition of Developer to digest the deacetylated substrate, and generate the fluorescent colour; Detection: 360/460 Ex/Em

Human HDAC2 = molecular target: T3, Human HDAC2 (Homo sapiens, UniProt Q92769); assay: HDAC2 biochemical assay, AMC-labeled peptide substrate; settings: read-out: HDAC Isoform IC50 (nM) 2
T3 construct: full length with C-terminal GST-tag; GST (C); host or cells: baculovirus expression system
T3 sequence (Q92769 whole entry, canonical isoform): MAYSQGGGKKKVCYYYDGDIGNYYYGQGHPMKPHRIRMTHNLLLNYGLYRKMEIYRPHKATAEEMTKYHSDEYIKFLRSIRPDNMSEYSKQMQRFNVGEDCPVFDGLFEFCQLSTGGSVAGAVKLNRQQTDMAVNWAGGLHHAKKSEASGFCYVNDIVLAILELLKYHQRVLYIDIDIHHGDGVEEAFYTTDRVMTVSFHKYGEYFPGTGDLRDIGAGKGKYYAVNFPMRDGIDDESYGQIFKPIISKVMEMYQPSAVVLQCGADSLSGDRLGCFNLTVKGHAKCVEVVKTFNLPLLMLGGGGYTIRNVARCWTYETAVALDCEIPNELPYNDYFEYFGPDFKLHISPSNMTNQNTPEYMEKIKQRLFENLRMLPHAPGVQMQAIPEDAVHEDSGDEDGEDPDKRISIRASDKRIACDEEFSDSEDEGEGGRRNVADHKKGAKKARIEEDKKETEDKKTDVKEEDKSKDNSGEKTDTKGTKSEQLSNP
Description: as §1, §2
Human HDAC2 (GenBank Accession No. NM_001527), full length with C-terminal GST-tag, MW=82.9 kDa, expressed inbaculovirus expression system.
as §3
HDAC2: 0.07 ng/ul HDAC2 and 50 μM HDAC substrate are in the reaction buffer with 1% DMSO final. Incubate for 1 hour at 30° C.
as §4, §5

Human HDAC4 = molecular target: T4, Human HDAC4 (Homo sapiens, UniProt P56524); assay: HDAC4 biochemical assay, class IIa-specific substrate; settings: read-out: HDAC Isoform IC50 (nM) 4
T4 construct: amino acids 627-1085 with N-terminal GST tag; GST (N); host or cells: baculovirus expression system
T4 sequence (P56524 627-1084 limits assumed): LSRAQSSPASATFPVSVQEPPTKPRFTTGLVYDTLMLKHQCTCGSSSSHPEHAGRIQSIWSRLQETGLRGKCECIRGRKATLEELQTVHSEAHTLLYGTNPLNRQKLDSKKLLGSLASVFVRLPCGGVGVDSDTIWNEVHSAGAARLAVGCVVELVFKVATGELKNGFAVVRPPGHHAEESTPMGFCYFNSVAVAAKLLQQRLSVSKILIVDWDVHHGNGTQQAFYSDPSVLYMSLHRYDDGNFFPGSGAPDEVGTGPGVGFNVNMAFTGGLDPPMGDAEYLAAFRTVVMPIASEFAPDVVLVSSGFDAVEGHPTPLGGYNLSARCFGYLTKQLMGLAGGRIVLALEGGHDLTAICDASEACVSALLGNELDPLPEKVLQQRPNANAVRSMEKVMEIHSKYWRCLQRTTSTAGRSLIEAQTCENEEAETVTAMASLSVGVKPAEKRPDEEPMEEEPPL
Summary of the method: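 Two-step fluorogenic read-out: deacetylated BOC-Lys(trifluoroacetyl)-AMC (50 μM) was digested by developer and measured at Ex/Em 360/460. Deacetylation by 0.004 ng/ul HDAC4 (aa 627-1085, N-terminal GST) ran 30 min at room temperature, pH 8.0 Tris buffer, 1 mg/mL BSA, 1% DMSO.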

Human HDAC11 = molecular target: T5, Human HDAC11 (Homo sapiens, UniProt Q96DB2); assay: HDAC11 biochemical assay, class IIa-specific substrate; settings: read-out: HDAC Isoform IC50 (nM) 11
T5 construct: Human HDAC11 (full length); His (N); host or cells: baculovirus expression system
T5 sequence (Q96DB2 1-347): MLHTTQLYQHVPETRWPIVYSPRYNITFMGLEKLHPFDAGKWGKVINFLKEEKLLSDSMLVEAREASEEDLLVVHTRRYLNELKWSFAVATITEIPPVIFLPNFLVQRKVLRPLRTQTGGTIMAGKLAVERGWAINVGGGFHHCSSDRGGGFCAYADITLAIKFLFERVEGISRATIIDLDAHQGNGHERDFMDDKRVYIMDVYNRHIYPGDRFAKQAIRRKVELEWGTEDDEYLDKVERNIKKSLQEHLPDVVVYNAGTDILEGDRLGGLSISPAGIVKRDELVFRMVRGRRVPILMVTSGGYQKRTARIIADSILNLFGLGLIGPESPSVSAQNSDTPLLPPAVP
Description: as §1, §2
Human HDAC11 (full length) (GenBank Accession No. NM_024827) with N-terminal His tag, MW=42.9 kDa, expressed in baculovirus expression system.
as §3
HDAC11: 5 ng/ul HDAC11 and 50 μMHDAC substrate are in the reaction buffer with 1% DMSO final. Incubate for 30 minutes at 30° C.
as §4, §5

Human HDAC1 = molecular target: T6, Human HDAC1 (Homo sapiens, UniProt Q13547); assay: HDAC1 biochemical assay, AMC-labeled peptide substrate; settings: read-out: HDAC Isoform IC50 (nM) 1
T6 construct: full length with C-terminal His-tag and C-terminal FLAG-tag; His (C); FLAG (C); host or cells: baculovirus expression system
T6 sequence (Q13547 whole entry, canonical isoform): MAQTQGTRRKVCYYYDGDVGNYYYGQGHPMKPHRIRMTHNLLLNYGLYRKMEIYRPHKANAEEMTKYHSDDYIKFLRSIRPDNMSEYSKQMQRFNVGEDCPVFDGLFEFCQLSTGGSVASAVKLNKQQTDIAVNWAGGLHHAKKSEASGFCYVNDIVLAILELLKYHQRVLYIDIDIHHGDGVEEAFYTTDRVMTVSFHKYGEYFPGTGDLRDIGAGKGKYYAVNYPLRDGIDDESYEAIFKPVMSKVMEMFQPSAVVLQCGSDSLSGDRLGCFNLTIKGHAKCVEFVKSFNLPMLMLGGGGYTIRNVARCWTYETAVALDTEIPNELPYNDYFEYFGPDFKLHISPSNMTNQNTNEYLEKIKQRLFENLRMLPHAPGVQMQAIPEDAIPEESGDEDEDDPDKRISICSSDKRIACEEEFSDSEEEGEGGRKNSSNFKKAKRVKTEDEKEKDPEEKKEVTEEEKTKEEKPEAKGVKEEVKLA
Summary of the method: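 Two-step fluorogenic read: HDAC1 deacetylates 50 μM acetyl-lysine AMC peptide RHKK(Ac)AMC for 1 h at 30° C (pH 8.0, 1% DMSO, with compound), then developer digests the product for fluorescence at Ex/Em 360/460. Enzyme is full-length human, His/FLAG-tagged, insect-cell expressed, at 0.3 ng/ul.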

SMILES: CC(C)OC1CN(C(=O)c2cnnc(N(Cc3ccc(-c4noc(C(F)(F)F)n4)s3)c3cnccn3)c2)C1 [Example GC, 5-[3-(Propan-2-yloxy)azetidine-1-carbonyl]-N-(pyrazin-2-yl)-N-({5-[5-(trifluoromethyl)-1,2,4-oxadiazol-3-yl]thiophen-2-yl}methyl)pyridazin-3-amine]
- IC50 (Human HDAC5): ≤ 500 nM
- IC50 (Human HDAC10): > 10000 nM
- IC50 (Human HDAC2): > 10000 nM
- IC50 (Human HDAC4): ≤ 1000 nM
- IC50 (Human HDAC11): > 10000 nM
- IC50 (Human HDAC1): > 10000 nM

SMILES: Fc1ccnc(N(Cc2ccc(-c3noc(C(F)(F)F)n3)s2)c2cnccn2)c1 [Example AG, N-(4-Fluoropyridin-2-yl)-N-({5-[5-(trifluoromethyl)-1,2,4-oxadiazol-3-yl]thiophen-2-yl}methyl)pyrazin-2-amine]
- IC50 (Human HDAC5): ≤ 10000 nM
- IC50 (Human HDAC10): > 10000 nM
- IC50 (Human HDAC2): > 10000 nM
- IC50 (Human HDAC4): ≤ 10000 nM
- IC50 (Human HDAC11): > 10000 nM
- IC50 (Human HDAC1): > 10000 nM

SMILES: COC1(C(F)(F)F)CN(C(=O)c2cnnc(N(Cc3ccc(-c4noc(C(F)(F)F)n4)s3)c3cnccn3)c2)C1 [Example GL, 5-[3-Methoxy-3-(trifluoromethyl)azetidine-1-carbonyl]-N-(pyrazin-2-yl)-N-({5-[5-(trifluoromethyl)-1,2,4-oxadiazol-3-yl]thiophen-2-yl}methyl)pyridazin-3-amine]
- IC50 (Human HDAC5): ≤ 1000 nM
- IC50 (Human HDAC10): > 10000 nM
- IC50 (Human HDAC2): > 10000 nM
- IC50 (Human HDAC4): ≤ 10000 nM
- IC50 (Human HDAC11): > 10000 nM
- IC50 (Human HDAC1): ≤ 10000 nM

SMILES: O=C(c1cnnc(N(Cc2ccc(-c3noc(C(F)(F)F)n3)s2)c2cnccn2)c1)N1CC[S+]([O-])CC1 [Example FU, 4-{6-[(Pyrazin-2-yl)({5-[5-(trifluoromethyl)-1,2,4-oxadiazol-3-yl]thiophen-2-yl}methyl)amino]pyridazine-4-carbonyl}-1lambda4-thiomorpholin-1-one]
- IC50 (Human HDAC5): ≤ 1000 nM
- IC50 (Human HDAC10): > 10000 nM
- IC50 (Human HDAC2): > 10000 nM
- IC50 (Human HDAC4): ≤ 10000 nM
- IC50 (Human HDAC11): > 10000 nM
- IC50 (Human HDAC1): > 10000 nM

SMILES: FC(F)(F)c1nc(-c2ccc(CN(c3cnccn3)c3cnc(N4CCOCC4)cn3)s2)no1 [Example BM, 5-(Morpholin-4-yl)-N-(pyrazin-2-yl)-N-({5-[5-(trifluoromethyl)-1,2,4-oxadiazol-3-yl]thiophen-2-yl}methyl)pyrazin-2-amine]
- IC50 (Human HDAC5): ≤ 1000 nM
- IC50 (Human HDAC10): > 10000 nM
- IC50 (Human HDAC2): > 10000 nM
- IC50 (Human HDAC4): ≤ 1000 nM
- IC50 (Human HDAC11): > 10000 nM
- IC50 (Human HDAC1): ≤ 10000 nM

SMILES: [O-][S+]1CCN(Cc2ccc(N(Cc3ccc(-c4noc(C(F)(F)F)n4)s3)c3cnccn3)nn2)CC1 [Example FO, 4-({6-[(Pyrazin-2-yl)({5-[5-(trifluoromethyl)-1,2,4-oxadiazol-3-yl]thiophen-2-yl}methyl)amino]pyridazin-3-yl}methyl)-1lambda4-thiomorpholin-1-one]
- IC50 (Human HDAC5): ≤ 1000 nM
- IC50 (Human HDAC10): > 10000 nM
- IC50 (Human HDAC2): > 10000 nM
- IC50 (Human HDAC4): ≤ 1000 nM
- IC50 (Human HDAC11): > 10000 nM
- IC50 (Human HDAC1): > 10000 nM

SMILES: FC(F)(F)c1nc(-c2ccc(CN(c3cnccn3)c3cc(N4CCOCC4)cnn3)s2)no1 [Example FP, 5-(Morpholin-4-yl)-N-(pyrazin-2-yl)-N-({5-[5-(trifluoromethyl)-1,2,4-oxadiazol-3-yl]thiophen-2-yl}methyl)pyridazin-3-amine]
- IC50 (Human HDAC5): ≤ 500 nM
- IC50 (Human HDAC10): > 10000 nM
- IC50 (Human HDAC2): > 10000 nM
- IC50 (Human HDAC4): ≤ 1000 nM
- IC50 (Human HDAC11): > 10000 nM
- IC50 (Human HDAC1): > 10000 nM

SMILES: O=C(c1cnnc(N(Cc2ccc(-c3noc(C(F)(F)F)n3)s2)c2cnccn2)c1)N1CC(O)(C(F)(F)F)C1 [Example GD, 1-{6-[(Pyrazin-2-yl)({5-[5-(trifluoromethyl)-1,2,4-oxadiazol-3-yl]thiophen-2-yl}methyl)amino]pyridazine-4-carbonyl}-3-(trifluoromethyl)azetidin-3-ol]
- IC50 (Human HDAC5): ≤ 1000 nM
- IC50 (Human HDAC10): > 10000 nM
- IC50 (Human HDAC2): > 10000 nM
- IC50 (Human HDAC4): ≤ 10000 nM
- IC50 (Human HDAC11): > 10000 nM
- IC50 (Human HDAC1): ≤ 10000 nM

SMILES: O=C(c1ccc(N(Cc2ccc(-c3noc(C(F)(F)F)n3)s2)c2cnccn2)nn1)N1CCC1 [Example FF, 6-(Azetidine-1-carbonyl)-N-(pyrazin-2-yl)-N-({5-[5-(trifluoromethyl)-1,2,4-oxadiazol-3-yl]thiophen-2-yl}methyl)pyridazin-3-amine]
- IC50 (Human HDAC5): ≤ 500 nM
- IC50 (Human HDAC10): > 10000 nM
- IC50 (Human HDAC2): > 10000 nM
- IC50 (Human HDAC4): ≤ 500 nM
- IC50 (Human HDAC11): > 10000 nM
- IC50 (Human HDAC1): ≤ 10000 nM

SMILES: Cc1cncc(N(Cc2ccc(-c3noc(C(F)(F)F)n3)s2)c2cnccn2)n1 [Example BP, 6-Methyl-N-(pyrazin-2-yl)-N-({5-[5-(trifluoromethyl)-1,2,4-oxadiazol-3-yl]thiophen-2-yl}methyl)pyrazin-2-amine]
- IC50 (Human HDAC5): ≤ 500 nM
- IC50 (Human HDAC10): > 10000 nM
- IC50 (Human HDAC2): > 10000 nM
- IC50 (Human HDAC4): ≤ 1000 nM
- IC50 (Human HDAC11): > 10000 nM
- IC50 (Human HDAC1): > 10000 nM

SMILES: COc1cncc(N(Cc2ccc(-c3noc(C(F)(F)F)n3)s2)c2cnccn2)n1 [Example BQ, 6-Methoxy-N-(pyrazin-2-yl)-N-({5-[5-(trifluoromethyl)-1,2,4-oxadiazol-3-yl]thiophen-2-yl}methyl)pyrazin-2-amine]
- IC50 (Human HDAC5): ≤ 1000 nM
- IC50 (Human HDAC10): > 10000 nM
- IC50 (Human HDAC2): > 10000 nM
- IC50 (Human HDAC4): ≤ 10000 nM
- IC50 (Human HDAC11): > 10000 nM
- IC50 (Human HDAC1): > 10000 nM

SMILES: N#Cc1cnnc(N(Cc2ccc(-c3noc(C(F)(F)F)n3)s2)c2cnccn2)c1 [Example EE, 6-[(Pyrazin-2-yl)({5-[5-(trifluoromethyl)-1,2,4-oxadiazol-3-yl]thiophen-2-yl}methyl)amino]pyridazine-4-carbonitrile]
- IC50 (Human HDAC5): ≤ 1000 nM
- IC50 (Human HDAC10): > 10000 nM
- IC50 (Human HDAC2): > 10000 nM
- IC50 (Human HDAC4): ≤ 10000 nM
- IC50 (Human HDAC11): > 10000 nM
- IC50 (Human HDAC1): > 10000 nM
